Assay results from patent US4443436A, “C-20-Modified macrolide derivatives of the macrolide antibiotics tylosin, desmycosin, macrocin, and lactenocin” (Eli Lilly and Company, priority 1982, dated 1984).
Converted amounts (≈) assume the structure as drawn. Where two headings read alike, the source gives them in different places.

Tests used:
[1] = system: Staphylococcus aureus X400; assay: MIC, standard agar-dilution assay, Staphylococcus aureus X400; format: cell-based
Mycoplasma synoviae = assay: MIC, broth-dilution microtiter test, Mycoplasma synoviae; format: cell-based; conditions: Mycoplasma synoviae; broth-dilution microtiter
Source text: (§1) The MIC's in Table X were obtained using conventional broth-dilution microtiter tests.

[2] = system: Staphylococcus aureus V41; assay: MIC, standard agar-dilution assay, Staphylococcus aureus V41; format: cell-based
Staphylococcus aureus = assay: MIC, broth-dilution microtiter test, Staphylococcus aureus; format: cell-based; conditions: broth-dilution microtiter
Source text: as §1

[3] = system: Staphylococcus epidermidis EPI2; assay: MIC, standard agar-dilution assay, Staphylococcus epidermidis EPI2; format: cell-based
[4] = system: Pasteurella hemolytica 22C; assay: MIC, broth-dilution microtiter test, Pasteurella hemolytica 22C; format: cell-based; conditions: Pasteurella hemolytica 22C, broth-dilution microtiter
Source text: as §1

Mycoplasma gallisepticum = assay: MIC, broth-dilution microtiter test, Mycoplasma gallisepticum; format: cell-based
Source text: as §1

[5] = system: Streptococcus pyogenes C203; assay: MIC, standard agar-dilution assay, Streptococcus pyogenes C203; format: cell-based; conditions: Streptococcus pyogenes C203, agar dilution
[6] = system: Haemophilus influenzae Holt; assay: MIC, standard agar-dilution assay, Haemophilus influenzae Holt; format: cell-based; conditions: Haemophilus influenzae Holt, ampicillin-sensitive strain
Streptococcus bovis 80 = assay: MIC, broth-dilution microtiter test, Streptococcus bovis 80; format: cell-based; conditions: Streptococcus bovis 80, broth-dilution microtiter
Source text: as §1

Mycoplasma hyorhinis = assay: MIC, broth-dilution microtiter test, Mycoplasma hyorhinis; format: cell-based; conditions: Mycoplasma hyorhinis, broth-dilution microtiter
Source text: as §1

Pasteurella multocida = assay: Subcutaneous treatment of Pasteurella multocida-infected chicks; format: in vivo, one-day-old chicks; conditions: 30 mg/kg × 2, 1 and 4 hours post-challenge
Method: Many of the C-20 modified derivatives of this invention have also shown in vivo antibacterial activity against infections induced by gram-negative bacteria. Tables XII and XIII summarize the results of tests in which illustrative compounds were evaluated against Pasteurella infection in one-day-old chicks. The compounds were administered parenterally or orally after challenge of the chicks with Pasteurella multocida (0.1 ml of a 10^-4 dilution of a twenty-hour tryptose broth culture of an avian P. multocida given subcutaneously). In these tests, unless indicated otherwise, all non-medicated infected chicks died within 24 hours of Pasteurella challenge. In the tests summarized in Table XII the compounds were administered by subcutaneous injection at a dosage of 30 mg/kg, 1 and 4 hours post-challenge of the chicks with P. multocida. In the test summarized in Table XIII the compounds were administered by gavage at 1 and 5 hours post-challenge of the chicks with P. multocida.

[7] = system: Streptococcus pneumoniae Park I; assay: microbe, parasite or virus in culture; format: cell-based; conditions: Streptococcus pneumoniae Park I, agar dilution
[8] = system: Staphylococcus epidermidis EPI1; assay: MIC, standard agar-dilution assay, Staphylococcus epidermidis EPI1; format: cell-based; conditions: Staphylococcus epidermidis EPI1, agar dilution
Mycoplasma hyopneumoniae = assay: MIC, broth-dilution microtiter test, Mycoplasma hyopneumoniae; format: cell-based; conditions: Mycoplasma hyopneumoniae; broth-dilution microtiter
Source text: as §1

[9] = system: Pasteurella multocida 17E; assay: MIC, broth-dilution microtiter test, Pasteurella multocida 17E; format: cell-based; conditions: Pasteurella multocida 17E, bovine isolate, broth-dilution microtiter
Source text: as §1

[10] = system: Staphylococcus aureus X1.1; assay: MIC, standard agar-dilution assay, Staphylococcus aureus X1.1; format: cell-based; conditions: Staphylococcus aureus X1.1, agar dilution
[11] = system: Pasteurella multocida 60A; assay: MIC, broth-dilution microtiter test, Pasteurella multocida 60A; format: cell-based; conditions: Pasteurella multocida 60A, avian isolate, broth-dilution microtiter
Source text: as §1

[12] = system: Haemophilus influenzae R252; assay: MIC, standard agar-dilution assay, Haemophilus influenzae R252; format: cell-based; conditions: Haemophilus influenzae R252, ampicillin-resistant strain
Streptococcus Group 9960 = assay: MIC, standard agar-dilution assay, Streptococcus Group 9960; format: cell-based
[13] = system: Staphylococcus aureus S13E; assay: MIC, standard agar-dilution assay, Staphylococcus aureus S13E; format: cell-based
[14] = system: Streptococcus pyogenes C203; assay: In vivo protection of mice experimentally infected with S. pyogenes C203; conditions: for ED50: Streptococcus pyogenes
Method: The C-20 modified derivatives of this invention have shown in vivo antimicrobial activity against experimentally-induced infections in laboratory animals. When two doses of test compound were administered to mice experimentally infected with S. pyogenes C203, the activity observed was measured as an ED50 value [effective dose in mg/kg to protect 50% of the test animals: see Warren Wick, et al., J. Bacteriol. 81, 233-235 (1961)].

[15] = system: Streptococcus Group D X66; assay: MIC, standard agar-dilution assay, Streptococcus Group D X66; format: cell-based; conditions: Streptococcus Group D X66, agar dilution
[16] = Staphylococcus aureus X400, methicillin-resistant strain, agar dilution
[17] = Staphylococcus aureus V41, penicillin-resistant strain, agar dilution
[18] = Staphylococcus epidermidis EPI2, agar dilution
[19] = Mycoplasma gallisepticum, broth-dilution microtiter
[20] = Streptococcus Group 9960, agar dilution
[21] = Staphylococcus aureus S13E, agar dilution

CCC1OC(=O)CC(O)C(C)C(OC2OC(C)C(O)C(N(C)C)C2O)C(CCN2C(=O)c3ccccc3C2=O)CC(C)C(=O)C=CC(C)=CC1COC1OC(C)C(O)C(OC)C1OC (stereo not shown) [Compound 43, 20-DH-DO-20-N-Phthalimidodesmycosin]
MIC [1, 16]: 0.5 µg/mL (≈ 0.554 µM)
MIC (Mycoplasma synoviae): 0.78 µg/mL (≈ 0.864 µM)
MIC [2, 17]: 0.12 µg/mL (≈ 0.133 µM)
MIC (Staphylococcus aureus): 0.78 µg/mL (≈ 0.864 µM)
MIC [3, 18]: 0.25 µg/mL (≈ 0.277 µM)
MIC [4]: 25 µg/mL (≈ 27.7 µM)
MIC (Mycoplasma gallisepticum; [19]): 0.78 µg/mL (≈ 0.864 µM)
MIC [5]: 0.25 µg/mL (≈ 0.277 µM)
MIC ([6]; agar dilution): 32 µg/mL (≈ 35.4 µM)
MIC (Streptococcus bovis 80): 6.25 µg/mL (≈ 6.92 µM)
MIC (Mycoplasma hyorhinis): 50 µg/mL (≈ 55.4 µM)
Number of Deaths/Number Treated (Pasteurella multocida): 10/10
MIC [7]: 2 µg/mL (≈ 2.21 µM)
MIC [8]: 0.12 µg/mL (≈ 0.133 µM)
MIC (Mycoplasma hyopneumoniae): 12.5 µg/mL (≈ 13.8 µM)
MIC [9]: 25 µg/mL (≈ 27.7 µM)
MIC [10]: 0.12 µg/mL (≈ 0.133 µM)
MIC [11]: 12.5 µg/mL (≈ 13.8 µM)
MIC ([12]; agar dilution): 32 µg/mL (≈ 35.4 µM)
MIC (Streptococcus Group 9960; [20]): 4 µg/mL (≈ 4.43 µM)
MIC [13, 21]: 0.25 µg/mL (≈ 0.277 µM)
ED50, Oral ([14]; mice, oral, doses given 1 and 4 hours post-infection): 16 mg/kg × 2
ED50, Subcutaneous ([14]; mice, subcutaneous, doses given 1 and 4 hours post-infection): 1.6 mg/kg × 2

CCC1OC(=O)CC(O)C(C)C(OC2OC(C)C(O)C(N(C)C)C2O)C(CCOc2cccnc2)CC(C)C(=O)C=CC(C)=CC1COC1OC(C)C(O)C(OC)C1OC (stereo not shown) [Compound 49, 20-DH-20-O-(Pyridin-3-yl)desmycosin]
MIC [1, 16]: 0.5 µg/mL (≈ 0.588 µM)
MIC (Mycoplasma synoviae): 3.12 µg/mL (≈ 3.67 µM)
MIC [2, 17]: 0.5 µg/mL (≈ 0.588 µM)
MIC (Staphylococcus aureus): 1.56 µg/mL (≈ 1.83 µM)
MIC [3, 18]: 0.25 µg/mL (≈ 0.294 µM)
MIC [4]: 25 µg/mL (≈ 29.4 µM)
MIC (Mycoplasma gallisepticum; [19]): 0.78 µg/mL (≈ 0.917 µM)
MIC [5]: 2 µg/mL (≈ 2.35 µM)
MIC ([6]; agar dilution): 16 µg/mL (≈ 18.8 µM)
MIC (Streptococcus bovis 80): 25 µg/mL (≈ 29.4 µM)
MIC (Mycoplasma hyorhinis): 50 µg/mL (≈ 58.8 µM)
Number of Deaths/Number Treated (Pasteurella multocida): 9/10
MIC [7]: 2 µg/mL (≈ 2.35 µM)
MIC [8]: 0.5 µg/mL (≈ 0.588 µM)
MIC (Mycoplasma hyopneumoniae): 25 µg/mL (≈ 29.4 µM)
MIC [9]: 25 µg/mL (≈ 29.4 µM)
MIC [10]: 0.5 µg/mL (≈ 0.588 µM)
MIC [11]: 25 µg/mL (≈ 29.4 µM)
MIC ([12]; agar dilution): 16 µg/mL (≈ 18.8 µM)
MIC (Streptococcus Group 9960; [20]): 16 µg/mL (≈ 18.8 µM)
MIC [15]: 16 µg/mL (≈ 18.8 µM)
MIC [13, 21]: 0.5 µg/mL (≈ 0.588 µM)

CCC1OC(=O)CC(O)C(C)C(OC2OC(C)C(O)C(N(C)C)C2O)C(CCOC(=O)c2nn(CC)c3cc4c(cc3c2=O)OCO4)CC(C)C(=O)C=CC(C)=CC1COC1OC(C)C(O)C(OC)C1OC (stereo not shown) [Compound 27, 20-DH-20-O-Cinoxacinyldesmycosin]
MIC ([1]; Staphylococcus aureus, X400): 8 µg/mL (≈ 7.86 µM)
MIC ([2]; Staphylococcus aureus, V41): 4 µg/mL (≈ 3.93 µM)
MIC (Staphylococcus aureus; read-out: MIC): 3.12 µg/mL (≈ 3.06 µM)
MIC ([3]; Staphylococcus epidermidis, EPI2): 4 µg/mL (≈ 3.93 µM)
MIC ([4]; read-out: MIC): 50 µg/mL (≈ 49.1 µM)
MIC (Mycoplasma gallisepticum; Mycoplasmoides gallisepticum): 1.56 µg/mL (≈ 1.53 µM)
MIC ([5]; read-out: MIC): 0.12 µg/mL (≈ 0.118 µM)
MIC ([6]; read-out: MIC): 32 µg/mL (≈ 31.4 µM)
MIC (Streptococcus bovis 80; Streptococcus equinus, read-out: MIC): 0.78 µg/mL (≈ 0.766 µM)
MIC (Mycoplasma hyorhinis; read-out: MIC): 6.25 µg/mL (≈ 6.14 µM)
Number of Deaths/Number Treated (Pasteurella multocida): 6/10
MIC ([7]; read-out: MIC): 0.12 µg/mL (≈ 0.118 µM)
MIC ([8]; read-out: MIC): 1 µg/mL (≈ 0.982 µM)
MIC ([9]; read-out: MIC): 25 µg/mL (≈ 24.6 µM)
MIC ([10]; read-out: MIC): 2 µg/mL (≈ 1.96 µM)
MIC ([11]; read-out: MIC): 25 µg/mL (≈ 24.6 µM)
MIC ([12]; read-out: MIC): 32 µg/mL (≈ 31.4 µM)
MIC (Streptococcus Group 9960; GROUP9960): 8 µg/mL (≈ 7.86 µM)
MIC ([15]; read-out: MIC): 4 µg/mL (≈ 3.93 µM)
MIC ([13]; Staphylococcus aureus, S13E): 4 µg/mL (≈ 3.93 µM)
ED50 ([14]; C203, po, read-out: ED50, Oral): > 100 mg/kg
ED50 ([14]; C203, sc, mice, subcutaneous, doses given 1 and 4 hours post-infection, read-out: ED50, Subcutaneous): < 1.5 mg/kg
